Assay results reported in patent US12497408B2, “Tetracyclic compounds and methods for the treatment of Zika virus infection” (priority 2021, dated 2025).

Each compound was assayed on ZIKV (assay: ZIKV reporter virus-based antiviral screening on Huh7 cells). Settings: Zika virus, Huh-7, 48 h, Huh7 cells infected with recombinant luciferase reporter ZIKV (MOI about 0.1), luciferase signal.
Type: cell-based, Zika virus
Description: Protocol for ZIKV reporter virus-based antiviral screening on Huh7 cells:
• Human hepatocyte-derived carcinoma cell line (Huh7) 2. Reagents • ViviRen™ Live Cell Substrate (Promega, Cat #E6492) or Nano Glo assay system (Promega: N1130) • White opaque 96-well TC-treated microplates (Corning, Cat #3916) • 96-well Clear V-Bottom TC-treated Microplate (Corning, Cat #3894) • Complete cell culture media: DMEM (Gibco, Cat #10569) supplemented with 10% FBS (HyClone, Cat #SH30071.03IH25-40)+1% MEM Non-Essential Amino Acids Solution 100×(Gibco, Cat #11140050)+1% Penicillin-Streptomycin (10,000 U/mL) (Gibco, Cat #15140122). • Assay media: DMEM media (Gibco, Cat #31053028) supplemented with 2% FBS, 2% GlutaMAX™ Supplement (Gibco Cat #35050061), 1% Sodium Pyruvate solution (Gibco, Cat #11360070), 1% MEM Non-Essential Amino Acids Solution 100× and 1% Penicillin-Streptomycin (10,000 U/mL). • Trypsin-EDTA solution (Gibco, Cat #25200056) 3. Virus • Recombinant ZIKV strain with Renilla luciferase gene (strain FSS-Rlu) or Nano luciferase gene (Strain PRV-Nano, Dakar-Nano) 4. Instruments • BioTek Cytation 5 or other plate-readers for chemiluminescence detection model. • Eppendorf plate centrifuge • Plate shaker • Eppendorf multichannel pipettes Procedures Day 1: Preparation of Cells • Human hepatocyte-derived carcinoma cell line (Huh7) cells were detached from a T-175 flask by using a Trypsin-EDTA solution. The detached cells were suspended in complete culture media in a sterile 50-ml conical tube. • The 50-ml conical tube was centrifuged at 1200×rpm for 3 min at room temperature. • The cells were resuspended in assay media. The cell numbers were counted, and the cells diluted to a density of 3×10^5 cells/ml. • The cells were plated at 50 μl cells per well in White opaque 96-well plates (assay plates). Gently shake the plates to ensure cells to attach to the plate evenly. • The plated cells were incubated in a humidified incubator (37° C. with 5% CO2). Day 2: Infection • 1) Nine serial (2-fold or 3-fold) concentrated compounds were prepared using 90% DMSO solution and DMSO controls in a clear V-bottom 96-well plate (compound plate). • For example:
• 2) The reporter virus stock was diluted to a concentration of 3×10^4 FFU (FFU: focus-forming unit)/ml using the assay media. 200 μl diluted virus per well was aliquoted into a clear V-bottom 96-well plate (mixing plate). • 3) 1 μl above 400×concentrated compound dilutions was added from the compound plate to each well of the mixing plate. The plates were shaken on a plate shaker for 5 min. • 4) 50 μl compound-virus mixture was added into each well of the assay plates (the MOI is about 0.1). The plates were shaken gently by mixing the virus evenly. • An example of the format for assay plate:
• control. • 5) The plates were centrifuged at 1000 rpm for 15 s. • 6) The plates were incubated at 37° C. with 5% CO2 in a humidified incubator for 48 hrs. Day 4: Read Luciferase Signals • 7) The ViviRen™ Live Cell Substrate was diluted in assay media for 3000× folds. 25 μl of diluted substrates was added into each well of the assay plates. • For Nano-Glo assay system, 50 μl diluted substrates (50×fold diluted from the stock in assay buffer) were added. • 8) The plates were incubated at room temperature for 5 min. • 9) Optimally, cell viability is measured using the Promega Cell-titer Glo kit (only used when ZIKV-Rlu was used for infection). • 10) Luciferase signals were read using the Cytation 5 with gain value of 120-150. Data Analysis • a. The luciferase signals from DMSO-treated groups (un-treated controls) were set as 100%. The relative luciferase signals were obtained by normalizing the luciferase signals from each dilution-treated group to that of the controls. • b.

SMILES	EC50 [nM]
CC[C@H](C)[C@H](NC(=O)OC)C(=O)N1C[C@H](C)C[C@H]1c1nc(Cl)c(-c2cc3c4c(c2)OCc2cc(-c5[nH]c([C@@H]6C[C@@H](C)CN6C(=O)[C@@H](NC(=O)OC)[C@@H](C)CC)nc5Cl)cc(c2-4)OC3)[nH]1 [Compound 2, dimethyl ((2S,2′S,3S,3′S)-((3R,3′R,5S,5′S)-((5,10-dihydrochromeno[5,4,3-cde]chromene-2,7-diyl)bis(4-chloro-1H-imidazole-5,2-diyl))bis(3-methylpyrrolidine-5,1-diyl))bis(3-methyl-1-oxopentane-1,2-diyl))dicarbamate]	6.5
COC(=O)N[C@H](C(=O)N1[C@H](C)CC[C@H]1c1nc(Cl)c(-c2cc3c4c(c2)OCc2cc(-c5[nH]c([C@@H]6CC[C@@H](C)N6C(=O)[C@@H](NC(=O)OC)C(C)C)nc5Cl)cc(c2-4)OC3)[nH]1)C(C)C [Compound 62, dimethyl ((2S,2′S)-((2R,2′R,5S,5′S)-((5,10-dihydrochromeno[5,4,3-cde]chromene-2,7-diyl)bis(4-chloro-1H-imidazole-5,2-diyl))bis(2-methylpyrrolidine-5,1-diyl))bis(3-methyl-1-oxobutane-1,2-diyl))dicarbamate]	17.7
COC(=O)N[C@@H](C(=O)N1CC2(CC2)C[C@H]1c1nc(Cl)c(-c2cc3c4c(c2)OCc2cc(-c5[nH]c([C@@H]6CC7(CC7)CN6C(=O)[C@H](NC(=O)OC)C(C)C)nc5C(C)C)cc(c2-4)OC3)[nH]1)C(C)C [Compound 81, methyl ((R)-1-((S)-6-(5-(7-(4-chloro-2-((S)-5-((methoxycarbonyl)-D-valyl)-5-azaspiro[2.4]heptan-6-yl)-1H-imidazol-5-yl)-5,10-dihydrochromeno[5,4,3-cde]chromen-2-yl)-4-isopropyl-1H-imidazol-2-yl)-5-azaspiro[2.4]heptan-5-yl)-3-methyl-1-oxobutan-2-yl)carbamate]	> 1000
COC(=O)N[C@H](C(=O)N1CC(F)(F)C[C@H]1c1nc(Cl)c(-c2cc3c4c(c2)OCc2cc(-c5[nH]c([C@@H]6CC(F)(F)CN6C(=O)[C@@H](NC(=O)OC)C(C)(C)C(F)(F)F)nc5Cl)cc(c2-4)OC3)[nH]1)C(C)(C)C(F)(F)F [Compound 58, dimethyl ((2S,2′S)-((5S,5′S)-((5,10-dihydrochromeno[5,4,3-cde]chromene-2,7-diyl)bis(4-chloro-1H-imidazole-5,2-diyl))bis(3,3-difluoropyrrolidine-5,1-diyl))bis(4,4,4-trifluoro-3,3-dimethyl-1-oxobutane-1,2-diyl))dicarbamate]	11
COC(=O)N[C@H](C(=O)N1C[C@@H](OC)C[C@H]1c1nc(Cl)c(-c2cc3c4c(c2)OCc2cc(-c5[nH]c([C@@H]6C[C@H](OC)CN6C(=O)[C@@H](NC(=O)OC)C(C)(C)C(F)(F)F)nc5Cl)cc(c2-4)OC3)[nH]1)C(C)(C)C(F)(F)F [Compound 6, dimethyl ((2S,2′S)-((3S,3′S,5S,5′S)-((5,10-dihydrochromeno[5,4,3-cde]chromene-2,7-diyl)bis(4-chloro-1H-imidazole-5,2-diyl))bis(3-methoxypyrrolidine-5,1-diyl))bis(4,4,4-trifluoro-3,3-dimethyl-1-oxobutane-1,2-diyl))dicarbamate]	4.9
CC[C@H](C)[C@H](NC(=O)OC)C(=O)N1CC(C)(C)C[C@H]1c1nc(Cl)c(-c2cc3c4c(c2)OCc2cc(-c5[nH]c([C@@H]6CC(C)(C)CN6C(=O)[C@@H](NC(=O)OC)[C@@H](C)CC)nc5Cl)cc(c2-4)OC3)[nH]1 [Compound 8, dimethyl ((2S,2′S,3S,3′S)-((5S,5′S)-((5,10-dihydrochromeno[5,4,3-cde]chromene-2,7-diyl)bis(4-chloro-1H-imidazole-5,2-diyl))bis(3,3-dimethylpyrrolidine-5,1-diyl))bis(3-methyl-1-oxopentane-1,2-diyl))dicarbamate]	4.4
COC(=O)N[C@H](C(=O)N1[C@@H](C)CC[C@H]1c1nc(Cl)c(-c2cc3c4c(c2)OCc2cc(-c5[nH]c([C@@H]6CC[C@H](C)N6C(=O)[C@@H](NC(=O)OC)C(C)C)nc5C(C)C)cc(c2-4)OC3)[nH]1)C(C)C [Compound 43, methyl ((S)-1-((2S,5S)-2-(5-(7-(4-chloro-2-((2S,5S)-1-((methoxycarbonyl)-L-valyl)-5-methylpyrrolidin-2-yl)-1H-imidazol-5-yl)-5,10-dihydrochromeno[5,4,3-cde]chromen-2-yl)-4-isopropyl-1H-imidazol-2-yl)-5-methylpyrrolidin-1-yl)-3-methyl-1-oxobutan-2-yl)carbamate]	1.6
COC(=O)N[C@H](C(=O)N1[C@@H](C)CC[C@H]1c1nc(C(C)C)c(-c2cc3c4c(c2)OCc2cc(-c5[nH]c([C@@H]6CC[C@H](C)N6C(=O)[C@@H](NC(=O)OC)C(C)C)nc5C(C)C)cc(c2-4)OC3)[nH]1)C(C)C [Compound 40, dimethyl ((2S,2′S)-((2S,2′S,5S,5′S)-((5,10-dihydrochromeno[5,4,3-cde]chromene-2,7-diyl)bis(4-isopropyl-1H-imidazole-5,2-diyl))bis(2-methylpyrrolidine-5,1-diyl))bis(3-methyl-1-oxobutane-1,2-diyl))dicarbamate]	5.6
COC(=O)N[C@H](C(=O)N1CC2(CC2)C[C@H]1c1nc(Cl)c(-c2cc3c4c(c2)OCc2cc(-c5[nH]c([C@@H]6CC7(CC7)CN6C(=O)[C@@H](NC(=O)OC)C(C)(C)C)nc5C(C)C)cc(c2-4)OC3)[nH]1)C(C)(C)C [Compound 82, methyl ((S)-1-((S)-6-(5-(7-(4-chloro-2-((S)-5-((S)-2-((methoxycarbonyl)amino)-3,3-dimethylbutanoyl)-5-azaspiro[2.4]heptan-6-yl)-1H-imidazol-5-yl)-5,10-dihydrochromeno[5,4,3-cde]chromen-2-yl)-4-isopropyl-1H-imidazol-2-yl)-5-azaspiro[2.4]heptan-5-yl)-3,3-dimethyl-1-oxobutan-2-yl)carbamate]	2.6
COC(=O)N[C@H](C(=O)N1CCC[C@H]1c1nc(Cl)c(-c2cc3c4c(c2)OCc2cc(-c5[nH]c([C@@H]6CCCN6C(=O)[C@@H](NC(=O)OC)c6ccccc6)nc5Cl)cc(c2-4)OC3)[nH]1)c1ccccc1 [Compound 23, dimethyl ((1S,1′S)-((2S,2′S)-((5,10-dihydrochromeno[5,4,3-cde]chromene-2,7-diyl)bis(4-chloro-1H-imidazole-5,2-diyl))bis(pyrrolidine-2,1-diyl))bis(2-oxo-1-phenylethane-2,1-diyl))dicarbamate]	52.4
COC(=O)N[C@H](C(=O)N1CCC[C@H]1c1nc(C2CC2)c(-c2cc3c4c(c2)OCc2cc(-c5[nH]c([C@@H]6CCCN6C(=O)[C@@H](NC(=O)OC)C(C)C)nc5C5CC5)cc(c2-4)OC3)[nH]1)C(C)C [Compound 17, dimethyl ((2S,2′S)-((2S,2′S)-((5,10-dihydrochromeno[5,4,3-cde]chromene-2,7-diyl)bis(4-cyclopropyl-1H-imidazole-5,2-diyl))bis(pyrrolidine-2,1-diyl))bis(3-methyl-1-oxobutane-1,2-diyl))dicarbamate]	74.5
COC(=O)N[C@H](C(=O)N1C[C@@H](C)C[C@H]1c1nc(Cl)c(-c2cc3c4c(c2)OCc2cc(-c5[nH]c([C@@H]6C[C@H](C)CN6C(=O)[C@@H](NC(=O)OC)C(C)C)nc5Br)cc(c2-4)OC3)[nH]1)C(C)C [Compound 69, methyl ((S)-1-((2S,4S)-2-(4-bromo-5-(7-(4-chloro-2-((2S,4S)-1-((methoxycarbonyl)-L-valyl)-4-methylpyrrolidin-2-yl)-1H-imidazol-5-yl)-5,10-dihydrochromeno[5,4,3-cde]chromen-2-yl)-1H-imidazol-2-yl)-4-methylpyrrolidin-1-yl)-3-methyl-1-oxobutan-2-yl)carbamate]	11.6
